For series [1], the system named is penile artery. The experiment in a line: CD31 staining and quantification of penile arteries after prostate RT. Type of series: in vivo, Sprague Dawley rats. As to the method: (§1) Thirty-five eight-week-old male Sprague Dawley rats were obtained from Charles River Laboratories (Malvern, Pa.) and pair-housed under standard housing conditions. Animals were divided into 4 groups: Saline/Sham, Saline RT, TPOm/Sham, TPOm/RT.
(§2) TPOm was administered as a single dose via sub-cutaneous injection (3,000 μg/kg) 10 minutes after RT.
(§3) Stereotactic image-guided prostate single fraction RT was performed as published previously (Kimura et al., J. Sex Med. 9(6):1535-49 (2012)). In brief, rats were anesthetized and immobilized on a polystyrene block. A CT scan was performed to image the entire pelvis using a GE Discovery RT590 (GE Healthcare, Little Chalfont, UK). Individualized treatment plans were prepared for each rat using the Eclipse treatment planning system (Varian Medical Systems, Palo Alto, CA). […]
Penises were snap-frozen in liquid nitrogen and stored at −80° C. until use. […] CD31 expression was then quantified by highlighting only the CD31 stained portion surrounding each vessel, and obtaining a pixel count of the stained region, using a uniform threshold across all images. […]
(§4) Statistical analysis was completed using Prism 6 (GraphPad, LaJolla, CA). […] Rat weight was assessed using a two-way repeated measures ANOVA.

Series [2] relates to ear vasculature. The experiment in a line: Murine ear vein model: vascular permeability (FITC-dextran, intravital microscopy, Patlak analysis). Type of series: in vivo, Flk1-mCherry mice. The following applies: TPOm following radiation; days 3 and 7 post-irradiation. From the text:
(§5) Immediately prior to injection, aliquots were thawed and diluted.
(§6) Mice were anesthetized via isoflurane (2%, mixed with oxygen) and the ear was chemically depilated (Nair™) and cleaned with 70% ethanol. The mouse was placed on a heated stage underneath a Zeiss Observer.Z1 (Carl Zeiss AG, Oberkochen, Germany) inverted microscope. The irradiated ear was affixed to a plexi-glass slide using double-sided tape. Images were acquired using Zen Imaging software (Carl Zeiss AG, Oberkochen, Germany). The vascular endothelial cells in Flk1-mCherry mice express mCherry, which was visualized using a Zeiss Texas Red filter (Ex. 560/40; Em. 630/75). Acridine orange and FITC-dextran were visualized using a Zeiss eGFP/FITC/Alexa488 filter (Ex. 470/40; Em. 525/50).
After orienting the mouse on the microscope, a 30G needle attached to a syringe with Tygon Microbore tubing catheter (Harvard Apparatus) was inserted into the tail vain. Z-stack images of both the FITC and mCherry channels were acquired every 10 seconds, and 0.5 mg of FITC-conjugated 70 kDa dextran injected through the catheter after the third set image of images was collected. […]
Model (0.1) postulates that the change in tissue concentration at time t is proportional to CB(t-Δ), concentration of dextran in the vasculature at a delay Δ. […] In this setting, the quantity of interest is k1, the permeability rate. […]

Series [3] is described as follows: Rat weight gain after 20 Gy targeted prostate RT. The format is in vivo, Sprague Dawley rats. As to the method:
as §1, §2
as §3, with “CA). The prostate and rectum were contoured, with the primary treatment volume generated by expansion of the prostate by 1 mm followed by subtraction of the rectum expanded by 1 mm. A single, dynamic conformal arc plan using a beam energy of 6 MV was normalized to deliver 20 Gy to 95% of the primary treatment volume in a single fraction with partial sparing of the rectum.” for “CA).”
as §4

Series [4] relates to ear vasculature. The experiment in a line: Murine ear vein model: leukocyte-endothelial cell (L/E) interactions (acridine orange intravital microscopy). The format is in vivo, Flk1-mCherry mice.
From the text: as §5, §6
After orienting the mouse on the microscope, 0.5 mg of acridine orange (Sigma, St. Louis, MO; dissolved in sterile saline) was injected intravenously. […] Four venules per mouse were identified, based on their diameter, and the number of leukocytes that rolled past three pre-selected points in each venule were counted. The vessel diameter (D) and free-flowing leukocyte velocities (V) were also measured, and used to calculate shear rate, defined as (8×V)/D. All videos were analyzed by researchers blinded to the treatment groups. […]
B), and slopes were calculated for each individual mouse using GraphPad Prism. […]

Series [5] relates to internal pudendal artery. The series is described as follows: Ultrasonographic measurement of hydralazine-induced vasodilation after prostate RT. The format is in vivo, Sprague Dawley rats. As to the method: as §1, §2
(§7) Stereotactic image-guided prostate single fraction RT was performed as published previously (Kimura et al., J. Sex Med. 9(6):1535-49 (2012)). In brief, rats were anesthetized and immobilized on a polystyrene block. A CT scan was performed to image the entire pelvis using a GE Discovery RT590 (GE Healthcare, Little Chalfont, UK). Individualized treatment plans were prepared for each rat using the Eclipse treatment planning system (Varian Medical Systems, Palo Alto, CA). The prostate and rectum were contoured, with the primary treatment volume generated by expansion of the prostate by 1 mm followed by subtraction of the rectum expanded by 1 mm. A single, dynamic conformal arc plan using a beam energy of 6 MV was normalized to deliver 20 Gy to 95% of the primary treatment volume in a single fraction with partial sparing of the rectum. The majority of the bladder, the penis and the testes were excluded from the field. The rat was then treated on a NovalisTx radiosurgery linac (Brainlab AG, Munich, DE and Varian Medical Systems) using cone beam computed tomography prior to treatment with bony image guidance within the same anesthesia window as planning. Sham irradiated rats were anesthetized and immobilized on a polystyrene block without irradiation.
Following ICP measurements, acoustic gel was applied to the prostate area and a mouse high frequency echo transducer (MS5505) was applied to the internal pudendal artery. […] Reproducible US placement was verified by using the same US-measured distance to the pubic bone in all animals. […] Arterial diameter was measured using the vascular package for Vevo 2100 software.
as §4

In series [6] the test system is erectile function. The experiment in a line: Intracavernous pressure (ICP) measurements, radiation-induced erectile dysfunction. The format is in vivo, Sprague Dawley rats. As to the method:
as §1, §2, §7
For intracavernous pressure (ICP) measurements, a previously published protocol was followed (Kimura et al., J. Sex Med. 8(8):2215-26 (2011)). […] MAP and ICP were recorded using LabChart 7 software (ADInstruments, Colorado Spring, CO), and expressed as a ratio to minimize inter-rat differences in baseline pressure and effects of anesthesia.
as §4

For series [7] the following is noted: 3,000 μg/kg; administered at multiple time points; whole body radiation; cited from earlier work.
For series [8] the following is noted: mouse, in vivo.
Protocol: Male and female mice of at least 8 weeks of age were transferred to a non-barrier facility and group housed throughout the experiments.
Mice were anesthetized with 80/8 mg/kg ketamine/xylazine i.p. injection. Mice were placed in cylindrical lead jigs that shielded the entire body with the exception of the left ear pinna and were irradiated using an Orthovoltage X-ray 320 irradiator (Precision X-ray Inc.; North Branford, CT) at a dose rate of 203 cGy/minute (320 kVp/10 mA with a 2 mm Al filter).
TPOm was reconstituted in sterile saline, sterile filtered, aliquoted, and stored at −20° C. until use. Immediately prior to injection, aliquots were thawed and diluted. Mice received 300 μg/kg of TPOm, sub-cutaneously, six hours after radiation.
Mice were euthanized with 50 μL Euthasol (Virbac, Fort Worth, TX) injected intraperitoneally. After mice became non-responsive to toe pinch, but prior to heartbeat cessation, 500 μL of blood was collected by cardiac puncture via heparinized syringe, and immediately vortexed with 20 μL heparin. CBC analysis was conducted using an IDEXX ProCyte Dx Hematology analyzer by the Duke University Veterinary Diagnostic Laboratory.

Regarding “methoxypolyethyleneglycol20000-propionyl-L-Isoleucyl-L-Glutamyl-Glycyl-L-Prolyl-L-Threonyl-L-Leucyl-L-Arginyl-L-Glutaminyl-L-2-Naphthylalanyl-L-Leucyl-L-Alanyl-L-Alanyl-L-Arginyl-Sarcosyl-Ne-(methoxypolyethyleneglycol20000-propionyl-L-Isoleucyl-L-Glutamyl-Glycyl-L-Prolyl-L-Threonyl-L-Leucyl-L-Arginyl-L-Glutaminyl-L-2-Naphthylalanyl-L-Leucyl-L-Alanyl-L-Alanyl-L-Arginyl-Sarcosyl-)-Lysinamide [TPOm]”, the “RT-induced decrease in penile artery cross-sectional area” value in series [1] (TPOm/RT rats, nine weeks post-RT (FIG. 3B)) is “not seen”. In addition, the “CD31 density (CD31+ pixels/μm artery perimeter)” value in series [1] (pair-wise comparison between treatment groups (FIG. 3C)) is “no pair-wise differences”. In addition, in series [2], the “permeability rates versus non-irradiated controls” value is “not significantly different from non-irradiated controls”. For the same substance, the “mean rate of body weight gain” value is 28.6±3.9 g/week in series [3] (TPOm/RT, 20 Gy prostate RT, 3,000 μg/kg s.c. 10 minutes after RT) and 37.7±3.3 g/week in series [3] (TPOm/sham (no RT), 3,000 μg/kg s.c. single dose). Also, the “average slope of shear rate vs. L/E interactions” value in series [4] (6 Gy to the ear, 300 μg/kg TPOm s.c. six hours later, 24 hours post-irradiation) is reported as −8.7±6.4. In series [4] (FIG. 9C), the “L/E interaction at higher shear rates after RT” value is recorded as “prevented L/E interaction at higher shear rates”. For the same substance, the “change in pudendal artery diameter in response to hydralazine” value in series [5] (TPOm following 20 Gy prostate RT, 0.4 mg/kg hydralazine, 9 weeks post-RT) is listed as 24.1%±7.2%. In addition, the “protection from impaired pudendal artery vasodilation following prostate RT” value in series [5] (nine weeks post-RT, diameter before and after hydralazine (FIG. 2)) is on record as “protected rats from impaired pudendal artery vasodilation”. Further, the “increase in pudendal artery diameter following hydralazine infusion” value in series [5] (non-irradiated rats, TPOm alone, 0.4 mg/kg hydralazine, 9 weeks) is on record as 10.4%±10%. The “mean ICP:MAP versus unirradiated rats treated with saline” value in series [6] (TPOm alone, no RT) is “not significantly different”. Besides, the “ED penetrance (ICP:MAP ratio not greater than 0.6)” value in series [6] (TPOm following 20 Gy prostate RT, 9 weeks) was 67%. Also, the “prevention of prostate RT (20 Gy) induced erectile dysfunction” value in series [6] (single dose of TPOm 10 minutes post RT, ICP tested 9 weeks after RT (FIG. 4)) was “not prevented”. In addition, the “survival compared to placebo” value in series [7] was “substantial survival benefit”. Also, the “effect on total leukocytes, neutrophils or lymphocytes” value in series [8] is given as “no significant differences”.

(Values after patent publication US12251424B2, “Methods of protecting vascular integrity induced by targeted radiation therapy” (Janssen Pharmaceutica NV, priority 2017, dated 2025).)
